Measured values published in patent publication US11713338B2, “Cyclic peptides multimers targeting α-4-β-7 integrin” (priority 2016, dated 2023).

What follows are compounds tested against T1, integrin α4β7 (RPMI8866 human cells adhering to MAdCAM-1) (Homo sapiens, UniProt P13612+P26010) (assay: Integrin α4β7-MAdCAM cell adhesion assay (RPMI8866 cells)). Conditions: RPMI8866 cells adhering to MAdCAM; read-out: RPMI8866 Adhesion α4β7/MAdCAM IC50.
T1 construct: RMP18866 cells, which express integrin α4β7; host or cells: RPMI8866
T1 sequence (P13612 34-1032): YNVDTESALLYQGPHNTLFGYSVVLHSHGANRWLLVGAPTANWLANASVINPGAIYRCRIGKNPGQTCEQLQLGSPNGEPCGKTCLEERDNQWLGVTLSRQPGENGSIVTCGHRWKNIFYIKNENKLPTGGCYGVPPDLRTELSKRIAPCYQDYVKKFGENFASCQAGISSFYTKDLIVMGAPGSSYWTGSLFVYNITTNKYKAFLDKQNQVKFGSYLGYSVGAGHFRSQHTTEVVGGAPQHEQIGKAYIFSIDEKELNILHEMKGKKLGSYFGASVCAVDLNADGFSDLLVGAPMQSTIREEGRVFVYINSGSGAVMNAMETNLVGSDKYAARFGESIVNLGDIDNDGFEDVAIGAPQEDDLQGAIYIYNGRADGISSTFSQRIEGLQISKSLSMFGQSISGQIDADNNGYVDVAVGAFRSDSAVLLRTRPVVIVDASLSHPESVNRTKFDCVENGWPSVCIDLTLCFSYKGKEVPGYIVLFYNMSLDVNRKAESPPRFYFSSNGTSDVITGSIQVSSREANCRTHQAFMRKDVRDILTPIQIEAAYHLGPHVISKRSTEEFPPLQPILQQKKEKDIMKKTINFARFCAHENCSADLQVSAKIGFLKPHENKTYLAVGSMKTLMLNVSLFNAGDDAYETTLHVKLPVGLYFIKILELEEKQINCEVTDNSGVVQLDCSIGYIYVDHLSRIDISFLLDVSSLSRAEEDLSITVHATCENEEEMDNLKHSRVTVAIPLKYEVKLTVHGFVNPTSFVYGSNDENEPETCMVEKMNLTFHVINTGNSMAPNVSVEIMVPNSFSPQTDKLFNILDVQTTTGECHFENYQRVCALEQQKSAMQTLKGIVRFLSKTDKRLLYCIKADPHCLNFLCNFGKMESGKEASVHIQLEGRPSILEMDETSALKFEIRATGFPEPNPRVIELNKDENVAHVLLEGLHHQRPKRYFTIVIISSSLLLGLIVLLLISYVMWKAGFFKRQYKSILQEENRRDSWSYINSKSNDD
T1 sequence (P26010 20-798): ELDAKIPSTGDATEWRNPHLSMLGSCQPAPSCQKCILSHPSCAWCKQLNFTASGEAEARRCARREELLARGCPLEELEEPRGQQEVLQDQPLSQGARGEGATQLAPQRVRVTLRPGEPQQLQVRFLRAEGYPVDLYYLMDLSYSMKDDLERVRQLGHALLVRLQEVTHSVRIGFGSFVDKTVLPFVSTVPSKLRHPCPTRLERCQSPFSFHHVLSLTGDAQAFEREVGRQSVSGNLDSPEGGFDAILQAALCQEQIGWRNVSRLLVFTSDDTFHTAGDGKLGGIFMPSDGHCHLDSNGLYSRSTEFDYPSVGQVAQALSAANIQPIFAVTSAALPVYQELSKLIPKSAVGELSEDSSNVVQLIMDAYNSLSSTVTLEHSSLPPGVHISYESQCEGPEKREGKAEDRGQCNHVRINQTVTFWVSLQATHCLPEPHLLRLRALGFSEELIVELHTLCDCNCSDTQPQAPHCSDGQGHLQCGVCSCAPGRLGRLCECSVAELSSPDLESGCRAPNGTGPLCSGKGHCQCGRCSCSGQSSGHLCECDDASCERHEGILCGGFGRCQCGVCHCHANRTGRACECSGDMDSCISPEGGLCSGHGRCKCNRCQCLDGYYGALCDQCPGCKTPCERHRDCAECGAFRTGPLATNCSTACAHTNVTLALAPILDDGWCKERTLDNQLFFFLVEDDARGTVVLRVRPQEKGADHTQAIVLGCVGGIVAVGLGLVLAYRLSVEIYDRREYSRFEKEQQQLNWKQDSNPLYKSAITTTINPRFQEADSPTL
Assay type: cell-based
Experimental: Integrin α4β7-MAdCAM Cell Adhesion Assay
RPMI8866 cells were resuspended at 10 million cells/ml in PBS containing […] and incubated at 37° C. for 30 min in a 50 ml tube. […] The plate was emptied by inverting and blotting on paper towels and washed manually twice with PBS. 100 μl PBS was then added to each well. […] To calculate the dose response, the fluorescence value of control wells not containing cells was subtracted from each test well.

IC50 [nM]	SMILES
63	CC(C)C[C@@H]1NC(=O)c2ccc(-c3ccc(N4CCN(C(=O)CCSCCC(=O)N5CCN(c6ccc(-c7ccc8cc7CNC(=O)[C@@H]7CCCN7[C@H](C(=O)NC(C)(C)C)[C@H](C)NC(=O)[C@H]([C@@H](C)O)NC(=O)[C@H](CC(=O)O)NC(=O)[C@H](CC(C)C)NC8=O)cc6)CC5)CC4)cc3)c(c2)CNC(=O)[C@@H]2CCCN2[C@H](C(=O)NC(C)(C)C)[C@H](C)NC(=O)[C@H]([C@@H](C)O)NC(=O)[C@H](CC(=O)O)NC1=O [Compound 473]
32	CC(C)C[C@@H]1NC(=O)c2ccc(-c3ccc(N4CCN(C(=O)c5ncn(C)c5C(=O)N5CCN(c6ccc(-c7ccc8cc7CNC(=O)[C@@H]7CCCN7[C@H](C(=O)NC(C)(C)C)[C@H](C)NC(=O)[C@H]([C@@H](C)O)NC(=O)[C@H](CC(=O)O)NC(=O)[C@H](CC(C)C)NC8=O)cc6)CC5)CC4)cc3)c(c2)CNC(=O)[C@@H]2CCCN2[C@H](C(=O)NC(C)(C)C)[C@H](C)NC(=O)[C@H]([C@@H](C)O)NC(=O)[C@H](CC(=O)O)NC1=O [Compound 476]
34	CC(C)C[C@@H]1NC(=O)c2ccc(-c3ccc(N4CCN(C(=O)c5cccc(-c6ccccc6C(=O)N6CCN(c7ccc(-c8ccc9cc8CNC(=O)[C@@H]8CCCN8[C@H](C(=O)NC(C)(C)C)[C@H](C)NC(=O)[C@H]([C@@H](C)O)NC(=O)[C@H](CC(=O)O)NC(=O)[C@H](CC(C)C)NC9=O)cc7)CC6)c5)CC4)cc3)c(c2)CNC(=O)[C@@H]2CCCN2[C@H](C(=O)NC(C)(C)C)[C@H](C)NC(=O)[C@H]([C@@H](C)O)NC(=O)[C@H](CC(=O)O)NC1=O [Compound 478]
29	CC(C)C[C@@H]1NC(=O)c2ccc(-c3ccc(N4CCN(C(=O)CC(=O)N5CCN(c6ccc(-c7ccc8cc7CNC(=O)[C@@H]7CCCN7[C@H](C(=O)NC(C)(C)C)[C@H](C)NC(=O)[C@H]([C@@H](C)O)NC(=O)[C@H](CC(=O)O)NC(=O)[C@H](CC(C)C)NC8=O)cc6)CC5)CC4)cc3)c(c2)CNC(=O)[C@@H]2CCCN2[C@H](C(=O)NC(C)(C)C)[C@H](C)NC(=O)[C@H]([C@@H](C)O)NC(=O)[C@H](CC(=O)O)NC1=O [Compound 483]
30	CC(C)C[C@@H]1NC(=O)c2ccc(-c3ccc(N4CCN(C(=O)CCCC(=O)N5CCN(c6ccc(-c7ccc8cc7CNC(=O)[C@@H]7CCCN7[C@H](C(=O)NC(C)(C)C)[C@H](C)NC(=O)[C@H]([C@@H](C)O)NC(=O)[C@H](CC(=O)O)NC(=O)[C@H](CC(C)C)NC8=O)cc6)CC5)CC4)cc3)c(c2)CNC(=O)[C@@H]2CCCN2[C@H](C(=O)NC(C)(C)C)[C@H](C)NC(=O)[C@H]([C@@H](C)O)NC(=O)[C@H](CC(=O)O)NC1=O [Compound 485]
42	CC(C)C[C@@H]1NC(=O)c2ccc(-c3ccc(N4CCN(C(=O)CCCCC(=O)N5CCN(c6ccc(-c7ccc8cc7CNC(=O)[C@@H]7CCCN7[C@H](C(=O)NC(C)(C)C)[C@H](C)NC(=O)[C@H]([C@@H](C)O)NC(=O)[C@H](CC(=O)O)NC(=O)[C@H](CC(C)C)NC8=O)cc6)CC5)CC4)cc3)c(c2)CNC(=O)[C@@H]2CCCN2[C@H](C(=O)NC(C)(C)C)[C@H](C)NC(=O)[C@H]([C@@H](C)O)NC(=O)[C@H](CC(=O)O)NC1=O [Compound 486]
65	CC(C)C[C@@H]1NC(=O)c2ccc(-c3ccc(N4CCN(C(=O)CCCCCCC(=O)N5CCN(c6ccc(-c7ccc8cc7CNC(=O)[C@@H]7CCCN7[C@H](C(=O)NC(C)(C)C)[C@H](C)NC(=O)[C@H]([C@@H](C)O)NC(=O)[C@H](CC(=O)O)NC(=O)[C@H](CC(C)C)NC8=O)cc6)CC5)CC4)cc3)c(c2)CNC(=O)[C@@H]2CCCN2[C@H](C(=O)NC(C)(C)C)[C@H](C)NC(=O)[C@H]([C@@H](C)O)NC(=O)[C@H](CC(=O)O)NC1=O [Compound 487]
34	CC(C)C[C@@H]1NC(=O)c2ccc(-c3ccc(N4CCN(C(=O)CCCCCCCC(=O)N5CCN(c6ccc(-c7ccc8cc7CNC(=O)[C@@H]7CCCN7[C@H](C(=O)NC(C)(C)C)[C@H](C)NC(=O)[C@H]([C@@H](C)O)NC(=O)[C@H](CC(=O)O)NC(=O)[C@H](CC(C)C)NC8=O)cc6)CC5)CC4)cc3)c(c2)CNC(=O)[C@@H]2CCCN2[C@H](C(=O)NC(C)(C)C)[C@H](C)NC(=O)[C@H]([C@@H](C)O)NC(=O)[C@H](CC(=O)O)NC1=O [Compound 488]
40	CC(C)C[C@@H]1NC(=O)c2ccc(-c3ccc(N4CCN(C(=O)CCCCCCCCC(=O)N5CCN(c6ccc(-c7ccc8cc7CNC(=O)[C@@H]7CCCN7[C@H](C(=O)NC(C)(C)C)[C@H](C)NC(=O)[C@H]([C@@H](C)O)NC(=O)[C@H](CC(=O)O)NC(=O)[C@H](CC(C)C)NC8=O)cc6)CC5)CC4)cc3)c(c2)CNC(=O)[C@@H]2CCCN2[C@H](C(=O)NC(C)(C)C)[C@H](C)NC(=O)[C@H]([C@@H](C)O)NC(=O)[C@H](CC(=O)O)NC1=O [Compound 489]
30	CC(C)C[C@@H]1NC(=O)c2ccc(-c3ccc(N4CCN(C(=O)CC[C@@H](N)C(=O)N5CCN(c6ccc(-c7ccc8cc7CNC(=O)[C@@H]7CCCN7[C@H](C(=O)NC(C)(C)C)[C@H](C)NC(=O)[C@H]([C@@H](C)O)NC(=O)[C@H](CC(=O)O)NC(=O)[C@H](CC(C)C)NC8=O)cc6)CC5)CC4)cc3)c(c2)CNC(=O)[C@@H]2CCCN2[C@H](C(=O)NC(C)(C)C)[C@H](C)NC(=O)[C@H]([C@@H](C)O)NC(=O)[C@H](CC(=O)O)NC1=O [Compound 495]

SMILES	IC50 [nM]
CC(C)C[C@@H]1NC(=O)c2ccc(-c3ccc(N4CCN(C(=O)c5cccc(C(=O)N6CCN(c7ccc(-c8ccc9cc8CNC(=O)[C@@H]8CCCN8[C@H](C(=O)NC(C)(C)C)[C@H](C)NC(=O)[C@H]([C@@H](C)O)NC(=O)[C@H](CC(=O)O)NC(=O)[C@H](CC(C)C)NC9=O)cc7)CC6)n5)CC4)cc3)c(c2)CNC(=O)[C@@H]2CCCN2[C@H](C(=O)NC(C)(C)C)[C@H](C)NC(=O)[C@H]([C@@H](C)O)NC(=O)[C@H](CC(=O)O)NC1=O [Compound 472]	80
CC(C)C[C@@H]1NC(=O)c2ccc(-c3ccc(N4CCN(C(=O)[C@H]5CCCC[C@H]5C(=O)N5CCN(c6ccc(-c7ccc8cc7CNC(=O)[C@@H]7CCCN7[C@H](C(=O)NC(C)(C)C)[C@H](C)NC(=O)[C@H]([C@@H](C)O)NC(=O)[C@H](CC(=O)O)NC(=O)[C@H](CC(C)C)NC8=O)cc6)CC5)CC4)cc3)c(c2)CNC(=O)[C@@H]2CCCN2[C@H](C(=O)NC(C)(C)C)[C@H](C)NC(=O)[C@H]([C@@H](C)O)NC(=O)[C@H](CC(=O)O)NC1=O [Compound 491]	23
CC(C)C[C@@H]1NC(=O)c2ccc(-c3ccc(N4CCN(C(=O)Cc5ccccc5C(=O)N5CCN(c6ccc(-c7ccc8cc7CNC(=O)[C@@H]7CCCN7[C@H](C(=O)NC(C)(C)C)[C@H](C)NC(=O)[C@H]([C@@H](C)O)NC(=O)[C@H](CC(=O)O)NC(=O)[C@H](CC(C)C)NC8=O)cc6)CC5)CC4)cc3)c(c2)CNC(=O)[C@@H]2CCCN2[C@H](C(=O)NC(C)(C)C)[C@H](C)NC(=O)[C@H]([C@@H](C)O)NC(=O)[C@H](CC(=O)O)NC1=O [Compound 496]	41
